Data published in US11873291B2, “Quinoline cGAS antagonist compounds” (ImmuneSensor Therapeutics, Inc., priority 2020, dated 2024).

Columns and labels:
[1] = molecular target: T1, recombinant human cGAS (aa147-522) (Homo sapiens, UniProt Q8N884); assay: In vitro inhibition assay of cGAS activity (ATP consumption, KinaseGlo Max); type: biochemical; details: Table 3, read-out: cGAS Inhibition Results IC50
T1 construct: recombinant human cGAS (aa147-522); His6-SUMO (cleaved yes); made in house; host or cells: E. coli BL21/pLys
Summary of the method: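 IC50 came from plotting % ATP consumption against log compound concentration, with leftover ATP detected by KinaseGlo Max chemiluminescence. Reactions ran 20 min at 37 °C with 1.5 μg/mL human cGAS (aa147-522), 6.6 μM ATP, 0.1 mM GTP and 0.01 mg/mL DNA at pH 7.5.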

[2] = system: cGAS activity in Reporter THP1 cell line; assay: Cellular assay to measure cGAS activity: ISRE-Gaussia luciferase reporter THP1 cells transfected with ISD; type: cell-based; details: Homo sapiens, THP-1, Table 4, Gaussia luciferase
Procedure: Cellular assay to measure cGAS activity: Reporter THP1 cell line harboring a gene encoding Gaussia Luciferase under the control of 5 tandem repeats of interferon-stimulated response elements (ISRE) fused to an ISG54 minimal promoter was used to test inhibition of cGAS activity by synthetic compounds in human cells. These cells were plated on 96-well plates at 0.3×10^6/well and incubated with serial dilutions of compounds or DMSO for 5 min, followed by transfection of 2 μg/mL of ISD (Interferon Stimulatory DNA, a 45 bp DNA oligo) or mock transfected using lipofectamine 2000 (Life Technology) method, according to manufacturer's instructions. 16 hours later, 15 μL of the media from each well was transferred to a new plate, 50 μL of solution containing 50 mM Hepes-NaOH, pH 6.5, 50 mM NaCl, 10 mM EDTA, 1 μM of coelenterazine was added to each well and luminescence was measured immediately. Fold increase in luminescence compared to mock transfection was plotted against concentrations of each compound, and IC50 is calculated using Graphpad. To evaluate the specificity of a compound, the same procedure was performed except that cells were transfected with 2 μg/mL poly(I:C) or infected with Sendai Virus (SeV) at 50 Unit/mL, which are known to activate the RIG-I-MAVS pathway. A specific inhibitory compound should inhibit interferon induction by DNA but have minimal effect on poly(I:C) or Sendai virus induced interferon reporter gene expression.
The letter codes for cGAS IC50 include: A (<2 μM); B (2-10 μM); C (>10 μM).

T1 sequence (Q8N884 147-522): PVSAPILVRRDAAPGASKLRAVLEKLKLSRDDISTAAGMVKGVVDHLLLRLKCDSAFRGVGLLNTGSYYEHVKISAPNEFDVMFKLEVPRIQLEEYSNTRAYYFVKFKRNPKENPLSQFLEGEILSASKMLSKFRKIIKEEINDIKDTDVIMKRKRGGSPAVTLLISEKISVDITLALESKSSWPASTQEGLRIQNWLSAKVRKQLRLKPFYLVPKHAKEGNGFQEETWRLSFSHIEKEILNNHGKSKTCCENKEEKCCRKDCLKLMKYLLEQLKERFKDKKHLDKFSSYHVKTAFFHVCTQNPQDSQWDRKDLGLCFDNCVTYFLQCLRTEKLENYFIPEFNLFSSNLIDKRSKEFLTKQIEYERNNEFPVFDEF

| Structure (SMILES) | IC50 [1] [nM] | IC50 [2] [nM] |
| --- | --- | --- |
| COC(=O)[C@@H]1C[C@H](C)CN1c1cc(-n2ccnc2)c2ccc(Cl)c(Cl)c2n1 [I-586] | 2000 to 30000 | < 2000 |
| COC(=O)[C@@H]1C[C@H]2C[C@H]2N1c1cc(-n2ccnc2)c2ccc(Cl)c(Cl)c2n1 [I-591] | 2000 to 30000 | 2000 to 10000 |
| COC(=O)[C@@H]1C[C@@H](F)CN1c1cc(-n2ccnc2)c2ccc(Cl)c(Cl)c2n1 [I-592] | 2000 to 30000 | 2000 to 10000 |
| COC(=O)[C@@H]1CCCN1c1cc(-n2ccnc2)c2ccc(Cl)c(Cl)c2n1 [I-593] | 2000 to 30000 | 2000 to 10000 |
| CCOC(=O)[C@@H]1CCCN1c1cc(-n2ccnc2)c2ccc(Cl)c(Cl)c2n1 [I-594] | 2000 to 30000 | 2000 to 10000 |
| CC(C)OC(=O)[C@@H]1CCCN1c1cc(-n2ccnc2)c2ccc(Cl)c(Cl)c2n1 [I-595] | 2000 to 30000 | 2000 to 10000 |
| COC(=O)[C@@H]1[C@@H](O)CCN1c1cc(-n2ccnc2)c2ccc(Cl)c(Cl)c2n1 [I-596] | 2000 to 30000 | < 2000 |
| COC(=O)[C@@H]1[C@H](O)CCN1c1cc(-n2ccnc2)c2ccc(Cl)c(Cl)c2n1 [I-597] | 2000 to 30000 | > 10000 |
| COC(=O)[C@@H]1[C@@H](O)CCN1c1cc(-c2cn[nH]c2)c2ccc(Cl)c(Cl)c2n1 [I-598] | 2000 to 30000 | < 2000 |
| CCOC(=O)[C@@H]1[C@@H](O)CCN1c1cc(-n2ccnc2)c2ccc(Cl)c(Cl)c2n1 [I-599] | 2000 to 30000 | < 2000 |
| CC(C)OC(=O)[C@@H]1[C@@H](O)CCN1c1cc(-n2ccnc2)c2ccc(Cl)c(Cl)c2n1 [I-600] | 2000 to 30000 | < 2000 |
| CCCCOC(=O)[C@@H]1[C@@H](O)CCN1c1cc(-n2ccnc2)c2ccc(Cl)c(Cl)c2n1 [I-601] | 2000 to 30000 | < 2000 |
| COC(=O)[C@@H]1[C@@H](OC(C)=O)CCN1c1cc(-n2ccnc2)c2ccc(Cl)c(Cl)c2n1 [I-642, methyl (2S,3S)-3-acetoxy-1-(7,8-dichloro-4-(1H-imidazol-1-yl)quinolin-2-yl)pyrrolidine-2-carboxylate] | 2000 to 30000 | < 2000 |
| CC(C)(C)OC(=O)[C@@H]1[C@@H](O)CCN1c1cc(-n2ccnc2)c2ccc(Cl)c(Cl)c2n1 [I-645, tert-butyl (2S,3S)-1-(7,8-dichloro-4-(1H-imidazol-1-yl)quinolin-2-yl)-3-hydroxypyrrolidine-2-carboxylate] | 2000 to 30000 | < 2000 |
| COC(=O)[C@@H]1[C@@H](F)CCN1c1cc(-n2ccnc2)c2ccc(Cl)c(Cl)c2n1 [I-649, methyl (2R,3S)-1-(7,8-dichloro-4-(1H-imidazol-1-yl)quinolin-2-yl)-3-fluoropyrrolidine-2-carboxylate] | 2000 to 30000 | 2000 to 10000 |
| COC(=O)[C@@H]1[C@H](F)CCN1c1cc(-n2ccnc2)c2ccc(Cl)c(Cl)c2n1 [I-650] | 2000 to 30000 | 2000 to 10000 |
| O=C(OC(C(F)(F)F)C(F)(F)F)[C@@H]1[C@@H](O)CCN1c1cc(-n2ccnc2)c2ccc(Cl)c(Cl)c2n1 [I-663] | < 2000 | < 2000 |
| O=C(O)CCOC[C@@H]1CCCN1c1cc(-n2ccnc2)c2ccc(Cl)c(Cl)c2n1 [I-664, (S)-3-((1-(7,8-dichloro-4-(1H-imidazol-1-yl)quinolin-2-yl)pyrrolidin-2-yl)methoxy)propanoic acid] | < 2000 | < 2000 |
| COC(=O)CCOC[C@@H]1CCCN1c1cc(-n2ccnc2)c2ccc(Cl)c(Cl)c2n1 [I-665, methyl (S)-3-((1-(7,8-dichloro-4-(1H-imidazol-1-yl)quinolin-2-yl)pyrrolidin-2-yl)methoxy)propanoate] | < 2000 | < 2000 |
| O=C(O)COC[C@@H]1CCCN1c1cc(-n2ccnc2)c2ccc(Cl)c(Cl)c2n1 [I-666, (S)-2-((1-(7,8-dichloro-4-(1H-imidazol-1-yl)quinolin-2-yl)pyrrolidin-2-yl)methoxy)acetic acid] | < 2000 | < 2000 |
| COC(=O)COC[C@@H]1CCCN1c1cc(-n2ccnc2)c2ccc(Cl)c(Cl)c2n1 [I-667, methyl (S)-2-((1-(7,8-dichloro-4-(1H-imidazol-1-yl)quinolin-2-yl)pyrrolidin-2-yl)methoxy)acetate] | < 2000 | < 2000 |
| O=C(O)COCC[C@@H]1CCCN1c1cc(-n2ccnc2)c2ccc(Cl)c(Cl)c2n1 [I-668] | < 2000 | < 2000 |
| COC(=O)COCC[C@@H]1CCCN1c1cc(-n2ccnc2)c2ccc(Cl)c(Cl)c2n1 [I-669] | 2000 to 30000 | < 2000 |
| O=C(O)CCOC[C@@H]1CCCN1c1cc(-c2cn[nH]c2)c2ccc(Cl)c(Cl)c2n1 [I-670] | < 2000 | < 2000 |
| COC(=O)CCOC[C@@H]1CCCN1c1cc(-c2cn[nH]c2)c2ccc(Cl)c(Cl)c2n1 [I-671] | < 2000 | < 2000 |
| O=C(O)CCOCC[C@@H]1CCCN1c1cc(-n2ccnc2)c2ccc(Cl)c(Cl)c2n1 [I-672] | < 2000 | < 2000 |
| COC(=O)CCOCC[C@@H]1CCCN1c1cc(-n2ccnc2)c2ccc(Cl)c(Cl)c2n1 [I-673] | 2000 to 30000 | < 2000 |

Results, then the molecule that gave them:

| IC50 [1] [nM] | IC50 [2] [nM] | Structure (SMILES) |
| --- | --- | --- |
| < 2000 | 2000 to 10000 | O=C(O)CCOC[C@H]1CCCN1c1cc(-n2ccnc2)c2ccc(Cl)c(Cl)c2n1 [I-674] |
| < 2000 | < 2000 | O=C(O)CCCCOC[C@@H]1CCCN1c1cc(-n2ccnc2)c2ccc(Cl)c(Cl)c2n1 [I-676] |
| < 2000 | < 2000 | O=C(O)CCOCCC[C@@H]1CCCN1c1cc(-n2ccnc2)c2ccc(Cl)c(Cl)c2n1 [I-677] |
| < 2000 | 2000 to 10000 | OCCCOCC[C@@H]1CCCN1c1cc(-n2ccnc2)c2ccc(Cl)c(Cl)c2n1 [I-678] |
| < 2000 | 2000 to 10000 | O=C(O)CC[C@@H]1CCCN1c1cc(-n2ccnc2)c2ccc(Cl)c(Cl)c2n1 [I-679] |
| 2000 to 30000 | 2000 to 10000 | COC(=O)CC[C@@H]1CCCN1c1cc(-n2ccnc2)c2ccc(Cl)c(Cl)c2n1 [I-680] |
| 2000 to 30000 | < 2000 | COC(=O)CCC[C@@H]1CCCN1c1cc(-n2ccnc2)c2ccc(Cl)c(Cl)c2n1 [I-681] |
| < 2000 | < 2000 | O=C(O)CCC[C@@H]1CCCN1c1cc(-n2ccnc2)c2ccc(Cl)c(Cl)c2n1 [I-682] |
| < 2000 | < 2000 | O=C(O)CCCC[C@@H]1CCCN1c1cc(-n2ccnc2)c2ccc(Cl)c(Cl)c2n1 [I-683] |
| < 2000 | < 2000 | O=C(O)CCCC[C@@H]1CCCN1c1cc(-c2cn[nH]c2)c2ccc(Cl)c(Cl)c2n1 [I-684] |
| < 2000 | < 2000 | O=C(O)/C=C/C[C@@H]1CCCN1c1cc(-n2ccnc2)c2ccc(Cl)c(Cl)c2n1 [I-685] |
| 2000 to 30000 | < 2000 | COC(=O)/C=C/C[C@@H]1CCCN1c1cc(-n2ccnc2)c2ccc(Cl)c(Cl)c2n1 [I-686] |
| 2000 to 30000 | > 10000 | COC(=O)/C=C/[C@@H]1CCCN1c1cc(-n2ccnc2)c2ccc(Cl)c(Cl)c2n1 [I-687] |
| < 2000 | < 2000 | O=C(O)CCOC[C@@H]1CCN1c1cc(-n2ccnc2)c2ccc(Cl)c(Cl)c2n1 [I-688] |
| < 2000 | > 10000 | O=C(O)CCOCC1CN(c2cc(-n3ccnc3)c3ccc(Cl)c(Cl)c3n2)C1 [I-689] |
| < 2000 | < 2000 | O=C(O)CCCCCNc1cc(-n2ccnc2)c2ccc(Cl)c(Cl)c2n1 [I-690] |
| < 2000 | < 2000 | CN(CCCCCC(=O)O)c1cc(-n2ccnc2)c2ccc(Cl)c(Cl)c2n1 [I-691] |
| < 2000 | < 2000 | CN(CCCOCCC(=O)O)c1cc(-n2ccnc2)c2ccc(Cl)c(Cl)c2n1 [I-692] |
| < 2000 | > 10000 | O=C(O)CCOCCNc1cc(-n2ccnc2)c2ccc(Cl)c(Cl)c2n1 [I-693] |
| < 2000 | < 2000 | CN(CCOCCC(=O)O)c1cc(-n2ccnc2)c2ccc(Cl)c(Cl)c2n1 [I-694] |
| 2000 to 30000 | 2000 to 10000 | O=C(O)CCOCC(Cc1ccccc1)Nc1cc(-n2ccnc2)c2ccc(Cl)c(Cl)c2n1 (centres unmarked) [I-695] |
| < 2000 | < 2000 | C[C@@]1(COCCC(=O)O)CCCN1c1cc(-n2ccnc2)c2ccc(Cl)c(Cl)c2n1 [I-696] |
| < 2000 | > 10000 | O=C(O)CCOC[C@@H]1[C@@H](O)CCN1c1cc(-n2ccnc2)c2ccc(Cl)c(Cl)c2n1 [I-698] |
| < 2000 | < 2000 | O=C(O)CCOC[C@@H]1CC(F)(F)CN1c1cc(-n2ccnc2)c2ccc(Cl)c(Cl)c2n1 [I-699] |
| < 2000 | 2000 to 10000 | COC(=O)C(F)COC[C@@H]1CCCN1c1cc(-n2ccnc2)c2ccc(Cl)c(Cl)c2n1 (some centres unmarked) [I-700] |
